Source: patent publication US20120225093A1, “Abrogating HIV-1 Infection via Drug-Induced Reactivation of Apoptosis” (UNIVERSITY OF MEDICINE AND DENTISTRY OF NEW JERSEY, priority 2010, published 2012)

Legend:
[1] = in vivo, cited from earlier work
[2] = tested on: HIV p24; experiment: p24 expression from pNL4-3-LucE- molecular clone in 293T cells; type: cell-based, HIV-1; conditions: 293T cell extract; 12 hr post-transfection
Experimental: FIGS. 3A-D are a set of diagrams and photographs showing drug effects on luciferase expression from an HIV-1 molecular clone. A. Comparison of drug effects on luciferase expression from the pNL4-3-LucE- molecular clone in 293T cells. The molecular clone pNL4-3-LucE- and pCMV-Ren were transfected into 293T cells. Drugs were added where indicated at the following concentrations: P2 (30 μM), CPX (30 μM), DEF (250 μM), or DFOX (15 μM). Dual luciferase assays were conducted at 12 hr post-transfection. Firefly (FF) luciferase expression was normalized to Renilla luciferase (Ren) from pCMV-Ren (mean of 2 experiments in duplicate, ±SD). B. Expression in Jurkat cells was assayed essentially as in panel A. C. Firefly and Renilla luciferase RNA expression was analyzed in 293T cells treated as in panel A by RPA using 32P-[UTP] labeled antisense RNA probes corresponding to the C-termini of the FF and Ren luciferase mRNAs. D. Comparison of drug effects on p24 expression from the pNL4-3-LucE- molecular clone in 293T cells. Drugs were added where indicated to the same concentrations as in A. p24 levels were determined in cell extract at 12 hr post-transfection.
p24 core antigen in the supernatant was quantified by ELISA (Retrotek HIV-1 p24™; ZeptoMetrix Corp.; Buffalo, N.Y.). HIV-1 RNA copy number in the supernatant was determined with a PCR-based and FDA-approved assay (Amplicor HIV-1 Monitor™; Roche Diagnostics Corp.; Indianapolis, Ind.). IFN-γ and IL-10 in the supernatant were determined by cytometric bead array (Human Th1/Th2 Cytokine Kit II™; BD Biosciences Pharmingen, San Jose, Calif.).

[3] = tested on: bioavailable intracellular iron; experiment: IRE-controlled luciferase reporter in 293T cells; type: cell-based, human; conditions: 12 hr
Experimental: 293T cells (10^5 cells/well of 12-well microplates) were seeded and transfected 20 hr later with a firefly luciferase (Luc)-expressing reporter plasmid and corresponding Renilla luciferase (Ren)-expressing reference plasmid using TransFectin™ (Bio-Rad, Hercules, Calif.). The bioavailable intracellular iron concentration was monitored using plasmids obtained from B. Galy and M. W. Hentze (EMBL, Heidelberg). Plasmid pcFIF-Luc contains the mouse ferritin H 5′-UTR with an iron response element (IRE) controlling Luc; pcFIRo-Ren is a similar construct expressing a mutated non-functional IRE fused to Ren. The activity of the HIV-1 promoter was monitored using the pNL4-3-Luc E molecular clone (Chen et al. (1994) J Virol 68: 654-660.), based on the recombinant infectious proviral clone that contains DNA from HIV isolates NY5 (5′ half) and IIIB (3′ half). This plasmid, obtained from D. Baltimore (Caltech, Pasadena), contains the Luc gene in place of 102 nucleotides from nef and 6 nucleotides from env. pCMV-Ren (Promega, Madison, Wis.) was used as reference for pNL4-3-Luc E. Compounds were added at the time of transfection. Cells were harvested 12 hr later, washed with phosphate-buffered saline, and lysed for the dual luciferase assay (Dual Luciferase™ Reporter Assay System; Promega, Madison, Wis.). Luc data were normalized to the Ren internal controls (Hogue et al. (2009) Retrovirology 6: 90.).
Both CPX and DEF are hydroxypyridinones with vicinally positioned oxygen atoms that mediate bidentate interaction with metal ions, in particular Fe^3+ (FIG. 11A). To evaluate the effect of drugs on the intracellular iron pool and on HIV-1 gene expression, transient expression assays in human 293T cells were exploited. Bioavailable intracellular iron was measured using a construct in which an iron-responsive element (IRE) controls luciferase expression, and HIV-specific transcription was assayed in parallel using an HIV-1 molecular clone that expresses luciferase reporter under the direction of the retroviral promoter. CPX and DEF were compared with the medicinal chelator deferoxamine (DFOX) and with the CPX fragment Agent P2, which consists of the metal-binding 1,2-HOPO domain of CPX but lacks the cyclohexyl moiety (FIG. 11A).

[4] = target: T1, eIF5A:DOHH complex (Homo sapiens, UniProt Q9BU89); experiment: Co-immunoprecipitation of eIF5A with DOHH from 293T cell extracts; type: cell-based; conditions: CPX 30 μM, P2 30 μM, DEF 250 μM, DFOX 10 μM, GC7 10 μM; 24 hr
T1 construct: Endogenous DOHH co-immunoprecipitated with FLAG-eIF5A; expressed in transfected cells; host or cells: 293T cells (DOHH endogenous, FLAG-eIF5A transfected)
T1 sequence (Q9BU89 1-302): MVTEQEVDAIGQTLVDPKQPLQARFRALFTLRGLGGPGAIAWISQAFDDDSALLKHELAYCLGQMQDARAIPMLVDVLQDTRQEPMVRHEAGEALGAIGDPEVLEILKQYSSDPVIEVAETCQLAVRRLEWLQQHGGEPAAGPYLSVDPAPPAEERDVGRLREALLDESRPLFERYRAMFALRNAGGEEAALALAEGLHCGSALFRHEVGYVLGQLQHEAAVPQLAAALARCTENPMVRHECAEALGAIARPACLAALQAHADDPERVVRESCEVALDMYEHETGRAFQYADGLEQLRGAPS
Experimental: (§1) Immunoprecipitation and immunoblotting experiments were carried out as described previously in Hoque et al. Mol Cell Biol 2003, 23:1688-1702.
(§2) eIF5A forms tight complexes with its modifying enzymes. Unmodified eIF5A (lysine-50) immunoprecipitates with DHS and deoxyhypusyl-eIF5A interacts with DOHH in vitro. It was discovered that the deoxyhypusyl-eIF5A:DOHH complex formed in vivo can be detected by immunoprecipitation from cell extracts. Taking advantage of this finding, the effects of the drugs on the enzyme-substrate interaction were tested. FLAG-eIF5A was expressed in 293T cells and complexes that immunoprecipitated with anti-FLAG antibody were immunoblotted and probed with antibodies against DOHH. […] As a further control, the DHS inhibitor GC7 was included in this assay. […] As expected, none of the compounds affected the immunoprecipitation of FLAG-eIF5A (FIG. 2D, middle panel) or the expression of endogenous eIF5A (FIG. 2D, bottom panel). Reciprocally, the interaction between endogenous eIF5A and tagged DOHH was inhibited by CPX and DEF (FIG. 2E, right). Similarly, the interaction of endogenous eIF5A with tagged DHS was inhibited by GC7 (FIG. 2E, left) but resistant to CPX and DEF. It is concluded that CPX and DEF, but not P2 or DFOX, target DOHH and inhibit its interaction with its substrate, deoxyhypusylelF5A.

[5] = target: T2, eIF5A:DHS complex (Homo sapiens, UniProt P49366); experiment: Co-immunoprecipitation of eIF5A with DHS from 293T cell extracts; type: cell-based; conditions: 293T transfected with FLAG-DHS
T2 construct: expressed in transfected cells; host or cells: 293T cells (FLAG-DHS transfected, eIF5A endogenous)
T2 sequence (P49366 1-369): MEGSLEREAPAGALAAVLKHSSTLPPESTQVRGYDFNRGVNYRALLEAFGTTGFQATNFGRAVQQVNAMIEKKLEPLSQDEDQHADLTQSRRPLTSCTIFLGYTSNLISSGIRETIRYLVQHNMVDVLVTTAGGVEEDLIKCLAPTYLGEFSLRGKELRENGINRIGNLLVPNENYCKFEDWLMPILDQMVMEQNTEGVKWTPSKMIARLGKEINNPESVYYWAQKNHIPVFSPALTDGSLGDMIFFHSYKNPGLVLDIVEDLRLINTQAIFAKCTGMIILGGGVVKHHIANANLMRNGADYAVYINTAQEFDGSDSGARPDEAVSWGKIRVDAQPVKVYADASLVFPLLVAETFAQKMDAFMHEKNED
Experimental: as §1, §2

| association of endogenous DOHH with FLAG-eIF5A [4] | interaction of endogenous eIF5A with tagged DHS [5] | SMILES | peak concentration achievable in patients ([1]; human) | maximum achievable in human plasma [1] | inhibition of HIV p24 expression from the molecular clone [2] | reduction of intracellular iron (IRE-dependent luciferase) [3] |
| --- | --- | --- | --- | --- | --- | --- |
| – | – | CC(=O)N(O)CCCCCNC(=O)CCC(=O)N(O)CCCCCNC(=O)CCC(=O)N(O)CCCCCN [DFOX, deferoxamine] | 15 µM | 20 µM | no effect | 80% |
| No DOHH was associated with FLAG-eIF5A | inhibited | NCCCCCCCN=C(N)N [GC7] | – | – | – | – |
